In experiment [1] the target is T1, FL-C7 (full-length caspase-7) (Homo sapiens, UniProt P55210).
T1 construct: the p37 band as the full-length caspase-7 with intact N-terminus (FL-C7); endogenous in cells
T1 sequence (P55210 1-303): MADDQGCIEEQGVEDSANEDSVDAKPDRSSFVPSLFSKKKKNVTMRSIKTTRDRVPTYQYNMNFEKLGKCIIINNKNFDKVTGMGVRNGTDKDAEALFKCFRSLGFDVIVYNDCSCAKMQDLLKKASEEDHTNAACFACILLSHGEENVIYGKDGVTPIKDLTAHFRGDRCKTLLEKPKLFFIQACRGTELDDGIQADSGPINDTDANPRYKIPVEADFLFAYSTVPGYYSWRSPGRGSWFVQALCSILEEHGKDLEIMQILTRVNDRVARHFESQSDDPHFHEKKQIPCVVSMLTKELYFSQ
The experiment is described as follows: Inhibitor specificity in hypotonic 293 extracts, full-length caspase-7. It counts as biochemical. The note with it: inhibitor 20 μM for 5 min, then KMB01 30 min. From the text: (§1) FIGS. 6 A-E illustrate that full-length active caspase-7 has unique inhibitor specificity and is processed to mature forms by downstream executioner caspases. (A) The caspase-3 specific inhibitor causes accumulation of a catalytically active full-length form of caspase-7. Cytosolic extracts from 293 cells were activated with cytochrome c/dATP for the indicated times followed by labeling with KMB01 (left panel) and western blotting with a caspase-7 specific antibody (right panel) as in FIG. 5A. […] (B) The exact same experiment as (A) except extracts from MCF-7 cells were used in place of 293 extracts. (**) indicates forms of caspase-7 that are likely a result of the alternative transcription start site at methionine-45 (C) Quantification of the relative activity of FL-C7 in uninhibited 293 extracts (from FIG. 5A), AB06 treated 293 extracts (from (A)) and uninhibited MCF-7 extracts (from (B)) (D) Inhibitor specificity of full-length and processed forms of caspase-7. Extracts (293) were activated for 5 min with cytochrome c/dATP and then incubated with NP-capped AOMK inhibitors containing the indicated primary amino acid sequences for 5 minutes before KMB01 was added and allowed to label residual caspase active sites for 30 minutes. Samples were analyzed by SDS-PAGE followed by biotin blotting using strepavidin-HRP (left panel) or western blotting for caspase-7 (right panel). Identities of labeled caspases are indicated. (E) Specificity of AB06 after prolonged incubation times. Extracts were treated with AB06 at the indicated concentrations simultaneously with cytochrome c/dATP. At the indicated times after activation, samples were labeled with KMB01 (10 μM) for 30 minutes. Labeled caspases were resolved by SDS-PAGE analysis followed by biotin blotting using strepavidin-HRP.
To further confirm our assignment of the labeled species we treated samples at various activation times with purified recombinant Bir3 domain of XIAP. […]
(§2) An additional surprising finding from the inhibitor studies was the overall lack of inhibition of the FL-C7 species by AB06 relative to mature p20 forms of caspase-7. […] Samples were analyzed for active site labeling and protein levels of both full-length and p20 forms of caspase-7 were monitored by western blot (FIG. 6D).
Hypotonic 293 extracts (73 μg of total protein) were activated as described above and allowed to incubate for the indicated times. […] Labeling was carried out for an additional 30 minutes and samples (13.5 μg total protein) were analyzed by SDS-PAGE and biotin blotting as described above.
(§3) Hypotonic 293 extracts (73 μg of total protein) were activated at 37° C. for 5 minutes as described above. […] Samples (13.5 μg total protein) were analyzed by SDS-PAGE and biotin blotting as described above

The target of experiment [2] is T2, mature p20 forms of caspase-7 (Homo sapiens, UniProt P55210).
T2 construct: p20 is mature large subunit of caspase-7 with N-terminal peptide removed; processing of the zymogen to the large and small subunits by activity of the initiator caspases; endogenous in cells
T2 sequence (P55210 24-198 limits assumed): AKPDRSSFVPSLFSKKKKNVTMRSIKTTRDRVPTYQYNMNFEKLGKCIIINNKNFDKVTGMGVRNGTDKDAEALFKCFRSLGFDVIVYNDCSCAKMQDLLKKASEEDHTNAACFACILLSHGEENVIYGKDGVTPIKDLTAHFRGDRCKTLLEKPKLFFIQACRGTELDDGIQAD
T2 sequence (P55210 207-303 limits assumed): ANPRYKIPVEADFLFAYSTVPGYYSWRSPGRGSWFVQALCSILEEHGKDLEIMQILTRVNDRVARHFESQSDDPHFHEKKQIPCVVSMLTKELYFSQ
Kind of experiment: Inhibitor specificity in hypotonic 293 extracts, mature p20 caspase-7. It counts as biochemical. The note with it: inhibitor 20 μM for 5 min, then KMB01 30 min.
Text: as §1
as §2, with “mature p20 forms of caspase-7. This was surprising since the sequence of AB06 (NP-D3VD-AOMK) differs from the KMB01 probe sequence (Bio-EVD-AOMK) only at the P3 residue. […] We therefore wanted to use inhibitors to compare the ability of different P3 elements to bind to full-length and p20 mature forms of” for “mature p20 forms of”
as §3

For the molecule `Cc1cccc(C)c1C(=O)OCC(=O)[C@H](CC(=O)O)NC(=O)[C@@H](NC(=O)[C@H](Cc1ccncc1)NC(=O)[C@H](CC(=O)O)NC(=O)Cc1ccc(O)c([N+](=O)[O-])c1)C(C)C` [AB06, Np-D-3-V-D-DMBA], the “inhibition of FL-C7 labeling” value in experiment [1] is given as “relatively insensitive to inhibition”. Further, the “block of KMB01 labeling of mature p20 caspase-7” value in experiment [2] was “efficiently blocked labeling”.

Consider `Cc1cccc(C)c1C(=O)OCC(=O)[C@H](CC(=O)O)NC(=O)[C@@H](NC(=O)[C@H](CCC(=O)O)NC(=O)[C@H](CC(=O)O)NC(=O)Cc1ccc(O)c([N+](=O)[O-])c1)C(C)C` [AB09, Np-D-E- V-D-DMBA], for which the “inhibition of FL-C7 labeling” value in experiment [1] was “almost totally inhibited”. For the same molecule, in experiment [2], the “block of KMB01 labeling of mature p20 caspase-7” value is reported as “efficiently blocked labeling”.

For the origin of these results see patent US20100068150A1, “Selective Caspase Inhibitors” (The Board of Trustees of the Leland Stanford Junior …, priority 2006, published 2010).
